# Data as given in ChEMBL document CHEMBL1201861, “Genomics of Drug Sensitity in Cancer screening data, Wellcome Trust Sanger Institute”.
# pIC50: −log10 of the molar value. Structures can show the parent of a compound that is named as a salt.
# Experiments:
# Assay in all cases: cells
# Format in all cases: functional, cell-based, Homo sapiens
# SN12C = details: Homo sapiens, SN12C;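 also: growth inhibition of human SN12C cells, measured by a cell viability assay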
# Description: SANGER: Inhibition of human SN12C cell growth in a cell viability assay.
# NCI-H524 = details: Homo sapiens, NCI-H524;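 also: growth inhibition of human NCI-H524 cells, read out through a cell viability assay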
# Description: SANGER: Inhibition of human NCI-H524 cell growth in a cell viability assay.
# DMS-114 = details: Homo sapiens, DMS-114
# 23132-87 = details: Homo sapiens
# Description: SANGER: Inhibition of human 23132-87 cell growth in a cell viability assay.
# HT = details: Homo sapiens, HT
# Description: SANGER: Inhibition of human HT cell growth in a cell viability assay.
# CAL-85-1 = details: Homo sapiens, CAL-85-1;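 also: growth inhibition of human CAL-85-1 cells, read out with a cell viability assay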
# Description: SANGER: Inhibition of human CAL-85-1 cell growth in a cell viability assay.
# IA-LM = details: Homo sapiens, IA-LM;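 also: cell viability assay measuring growth inhibition of human IA-LM cells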
# Description: SANGER: Inhibition of human IA-LM cell growth in a cell viability assay.
# BXPC-3 = details: Homo sapiens, BXPC-3;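 also: growth inhibition of human BxPC-3 cells, read out by a cell viability assay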
# Description: SANGER: Inhibition of human BxPC-3 cell growth in a cell viability assay.
# SW780 = details: Homo sapiens, SW780;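 also: growth inhibition of the cells, read out with a cell viability assay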
# Description: SANGER: Inhibition of human SW780 cell growth in a cell viability assay.
# NCI-H1882 = details: Homo sapiens, NCI-H1882;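 also: growth inhibition of the cell line, determined with a viability assay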
# Description: SANGER: Inhibition of human NCI-H1882 cell growth in a cell viability assay.
# NCI-H720 = details: Homo sapiens, NCI-H720;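 also: growth inhibition of human NCI-H720 cells determined by a cell viability assay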
# Description: SANGER: Inhibition of human NCI-H720 cell growth in a cell viability assay.
# D283 Med = details: Homo sapiens, D283 Med
# Description: SANGER: Inhibition of human D-283MED cell growth in a cell viability assay.
# NCI-H2122 = details: Homo sapiens, NCI-H2122;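 also: growth inhibition of the cells, read out with a cell viability assay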
# Description: SANGER: Inhibition of human NCI-H2122 cell growth in a cell viability assay.
# MDA-MB-361 = details: Homo sapiens, MDA-MB-361
# ABC-1 = details: Homo sapiens, ABC-1;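 also: growth inhibition of human ABC-1 cells, read out by a cell viability assay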
# Description: SANGER: Inhibition of human ABC-1 cell growth in a cell viability assay.
# HC-1 = details: Homo sapiens, HC-1;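 also: growth inhibition of HC-1 cells measured by a cell viability assay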
# Description: SANGER: Inhibition of human HC-1 cell growth in a cell viability assay.
# NCI-H1693 = details: Homo sapiens, NCI-H1693;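 also: growth inhibition of the human cell line, read out with a cell viability assay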
# Description: SANGER: Inhibition of human NCI-H1693 cell growth in a cell viability assay.
# TE-11 = details: Homo sapiens, TE-11;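 also: growth inhibition of human TE-11 cells, read out by a cell viability assay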
# Description: SANGER: Inhibition of human TE-11 cell growth in a cell viability assay.
# A498 = details: Homo sapiens, A498;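 also: growth inhibition of human A498 cells, read out with a cell viability assay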
# Description: SANGER: Inhibition of human A498 cell growth in a cell viability assay.
# SCC-15 = details: Homo sapiens, SCC-15;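 also: growth inhibition of SCC-15 cells, read out with a cell viability assay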
# Description: SANGER: Inhibition of human SCC-15 cell growth in a cell viability assay.
# NCI-H747 = details: Homo sapiens, NCI-H747;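 also: growth inhibition of human NCI-H747 cells, read out by a cell viability assay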
# Description: SANGER: Inhibition of human NCI-H747 cell growth in a cell viability assay.
# SR = details: Homo sapiens, SR
# Description: SANGER: Inhibition of human SR cell growth in a cell viability assay.
# SUP-T1 = details: Homo sapiens, SUP-T1;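 also: growth inhibition of human SUP-T1 cells, read out as cell viability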
# Description: SANGER: Inhibition of human SUP-T1 cell growth in a cell viability assay.
# 5637 = details: Homo sapiens
# Description: SANGER: Inhibition of human 5637 cell growth in a cell viability assay.
# 647-V = details: Homo sapiens, 647-V;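 also: growth inhibition of 647-V cells, read out with a cell viability assay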
# Description: SANGER: Inhibition of human 647-V cell growth in a cell viability assay.
# GAMG = details: Homo sapiens, GAMG;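 also: cell growth inhibition measured by a viability assay in the GAMG human cell line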
# Description: SANGER: Inhibition of human GAMG cell growth in a cell viability assay.
# LAN-6 = details: Homo sapiens, LAN-6;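 also: growth inhibition of LAN-6 cells, determined with a cell viability assay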
# Description: SANGER: Inhibition of human LAN-6 cell growth in a cell viability assay.
# TE-15 = details: Homo sapiens, TE-15;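 also: cell viability readout of growth inhibition in TE-15 cells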
# Description: SANGER: Inhibition of human TE-15 cell growth in a cell viability assay.
# ES1 = details: Homo sapiens, ES1;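 also: growth inhibition of ES1 cells, read out with a cell viability assay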
# Description: SANGER: Inhibition of human ES1 cell growth in a cell viability assay.
# RPMI-8226 = details: Homo sapiens, RPMI-8226
# Description: SANGER: Inhibition of human RPMI-8226 cell growth in a cell viability assay.
# NCI-H526 = details: Homo sapiens, NCI-H526;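 also: growth inhibition of the human NCI-H526 cell line, measured by a cell viability assay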
# Description: SANGER: Inhibition of human NCI-H526 cell growth in a cell viability assay.
# YAPC = details: Homo sapiens, YAPC;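 also: growth inhibition of YAPC cells, measured with a cell viability assay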
# Description: SANGER: Inhibition of human YAPC cell growth in a cell viability assay.
# U-698-M = details: Homo sapiens, U-698-M
# Description: SANGER: Inhibition of human U-698-M cell growth in a cell viability assay.
# NCI-H1755 = details: Homo sapiens, NCI-H1755;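 also: cell viability readout used to measure growth inhibition of NCI-H1755 cells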
# Description: SANGER: Inhibition of human NCI-H1755 cell growth in a cell viability assay.
# MKN-7 = details: Homo sapiens, MKN-7;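 also: growth inhibition of MKN-7 cells, read out with a cell viability assay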
# Description: SANGER: Inhibition of human MKN7 cell growth in a cell viability assay.
# MDA-MB-134-VI = details: Homo sapiens, MDA-MB-134-VI
# Description: SANGER: Inhibition of human MDA-MB-134-VI cell growth in a cell viability assay.
# Daudi = details: Homo sapiens, Daudi;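 also: growth inhibition of Daudi cells, read out by a viability assay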
# Description: SANGER: Inhibition of human Daudi cell growth in a cell viability assay.
# SK-PN-DW = details: Homo sapiens, SK-PN-DW;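 also: growth inhibition measured with a viability assay on these cells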
# Description: SANGER: Inhibition of human SK-PN-DW cell growth in a cell viability assay.
# S-117 = details: Homo sapiens, S-117
# Description: SANGER: Inhibition of human S-117 cell growth in a cell viability assay.
# NALM-6 = details: Homo sapiens, NALM-6;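 also: growth inhibition of NALM-6 cells, read out with a cell viability assay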
# Description: SANGER: Inhibition of human NALM-6 cell growth in a cell viability assay.
# TE-10 = details: Homo sapiens, TE-10;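 also: growth inhibition of TE-10 cells, measured by a cell viability assay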
# Description: SANGER: Inhibition of human TE-10 cell growth in a cell viability assay.
# CAL-148 = details: Homo sapiens, CAL-148
# Description: SANGER: Inhibition of human CAL-148 cell growth in a cell viability assay.
# ARH-77 = details: Homo sapiens, ARH-77;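 also: growth inhibition of ARH-77 cells, read out by a cell viability assay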
# Description: SANGER: Inhibition of human ARH-77 cell growth in a cell viability assay.
# HuP-T4 = details: Homo sapiens, HuP-T4;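 also: cell viability assay measuring how much HuP-T4 cell growth is inhibited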
# Description: SANGER: Inhibition of human HuP-T4 cell growth in a cell viability assay.
# NCI-H748 = details: Homo sapiens, NCI-H748;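 also: growth inhibition of NCI-H748 cells, measured by a cell viability assay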
# Description: SANGER: Inhibition of human NCI-H748 cell growth in a cell viability assay.
# AN3-CA = details: Homo sapiens, AN3-CA;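 also: growth inhibition of human AN3-CA cells measured by a cell viability assay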
# Description: SANGER: Inhibition of human AN3-CA cell growth in a cell viability assay.
smiles,measurement,setting,value
Cc1cc([N+](=O)[O-])ccc1NS(=O)(=O)c1cc(Cl)ccc1Cl,pIC50,SN12C,5.44
same,pIC50,NCI-H524,4.90
same,pIC50,DMS-114,< 4.49
same,pIC50,23132-87,5.46
same,pIC50,HT,5.56
same,pIC50,CAL-85-1,5.44
same,pIC50,IA-LM,5.52
same,pIC50,BXPC-3,5.17
same,pIC50,SW780,5.21
same,pIC50,NCI-H1882,< 4.49
same,pIC50,NCI-H720,< 4.49
same,pIC50,D283 Med,5.40
same,pIC50,NCI-H2122,5.93
same,pIC50,MDA-MB-361,5.44
same,pIC50,ABC-1,5.47
same,pIC50,HC-1,4.90
same,pIC50,NCI-H1693,< 4.49
same,pIC50,TE-11,< 4.49
same,pIC50,A498,< 4.49
same,pIC50,SCC-15,5.40
same,pIC50,NCI-H747,5.13
same,pIC50,SR,5.30
same,pIC50,SUP-T1,5.27
same,pIC50,5637,5.14
same,pIC50,647-V,5.51
same,pIC50,GAMG,5.25
same,pIC50,LAN-6,4.69
same,pIC50,TE-15,5.67
same,pIC50,ES1,4.94
same,pIC50,RPMI-8226,5.18
same,pIC50,NCI-H526,4.55
same,pIC50,YAPC,< 4.49
same,pIC50,U-698-M,5.74
same,pIC50,NCI-H1755,4.80
same,pIC50,MKN-7,< 4.49
same,pIC50,MDA-MB-134-VI,< 4.49
same,pIC50,Daudi,5.90
same,pIC50,SK-PN-DW,4.94
same,pIC50,S-117,> 6.90
same,pIC50,NALM-6,5.20
same,pIC50,TE-10,5.40
same,pIC50,CAL-148,4.86
same,pIC50,ARH-77,< 4.49
same,pIC50,HuP-T4,5.77
same,pIC50,NCI-H748,< 4.49
same,pIC50,AN3-CA,5.97
COc1cccc2c1C(=O)c1c(O)c3c(c(O)c1C2=O)C[C@@](O)(C(=O)CO)C[C@@H]3O[C@H]1C[C@H](N)[C@H](O)[C@H](C)O1 [DOXORUBICIN],pIC50,SN12C,6.40
same,pIC50,NCI-H524,< 5.99
same,pIC50,DMS-114,6.40
same,pIC50,23132-87,7.81
same,pIC50,HT,6.39
same,pIC50,CAL-85-1,7.35
same,pIC50,IA-LM,7.20
same,pIC50,BXPC-3,6.68
same,pIC50,SW780,< 5.99
same,pIC50,NCI-H1882,6.67
same,pIC50,NCI-H720,< 5.99
same,pIC50,D283 Med,6.60
same,pIC50,NCI-H2122,7.42
same,pIC50,MDA-MB-361,6.53
same,pIC50,ABC-1,7.08
same,pIC50,HC-1,7.43
same,pIC50,NCI-H1693,6.54
same,pIC50,TE-11,6.62
same,pIC50,A498,< 5.99
same,pIC50,SCC-15,6.73
same,pIC50,NCI-H747,6.87
same,pIC50,SR,7.61
same,pIC50,SUP-T1,7.10
same,pIC50,5637,7.50
same,pIC50,647-V,7.73
same,pIC50,GAMG,7.22
same,pIC50,LAN-6,6.50
same,pIC50,TE-15,7.62
same,pIC50,ES1,7.86
same,pIC50,RPMI-8226,6.67
same,pIC50,NCI-H526,7.30
same,pIC50,YAPC,< 5.99
same,pIC50,U-698-M,6.86
same,pIC50,NCI-H1755,6.06
same,pIC50,MKN-7,6.16
same,pIC50,MDA-MB-134-VI,< 5.99
same,pIC50,Daudi,7.16
same,pIC50,SK-PN-DW,7.59
same,pIC50,S-117,< 5.99
same,pIC50,NALM-6,7.73
same,pIC50,TE-10,6.95
same,pIC50,CAL-148,7.57
same,pIC50,ARH-77,6.96
same,pIC50,HuP-T4,7.28
same,pIC50,NCI-H748,6.83
same,pIC50,AN3-CA,7.14
Nc1ccn([C@@H]2O[C@H](CO)[C@@H](O)C2(F)F)c(=O)n1 [GEMCITABINE],pIC50,SN12C,6.30
same,pIC50,NCI-H524,< 5.99
same,pIC50,DMS-114,< 5.99
same,pIC50,23132-87,7.37
same,pIC50,HT,< 5.99
same,pIC50,CAL-85-1,6.84
same,pIC50,IA-LM,8.23
same,pIC50,BXPC-3,7.43
same,pIC50,SW780,< 5.99
same,pIC50,NCI-H1882,7.08
same,pIC50,NCI-H720,< 5.99
same,pIC50,D283 Med,6.90
same,pIC50,NCI-H2122,> 8.40
same,pIC50,MDA-MB-361,6.34
same,pIC50,ABC-1,7.65
same,pIC50,HC-1,> 8.40
same,pIC50,NCI-H1693,7.34
same,pIC50,TE-11,< 5.99
same,pIC50,A498,< 5.99
same,pIC50,SCC-15,6.92
same,pIC50,NCI-H747,7.37
same,pIC50,SR,8.67
same,pIC50,SUP-T1,7.63
same,pIC50,5637,< 5.99
same,pIC50,647-V,> 8.40
same,pIC50,GAMG,8.43
same,pIC50,LAN-6,< 5.99
same,pIC50,TE-15,> 8.40
same,pIC50,ES1,> 8.40
same,pIC50,RPMI-8226,7.80
same,pIC50,NCI-H526,6.96
same,pIC50,YAPC,< 5.99
same,pIC50,U-698-M,6.46
same,pIC50,NCI-H1755,6.14
same,pIC50,MKN-7,< 5.99
same,pIC50,MDA-MB-134-VI,< 5.99
same,pIC50,Daudi,6.24
same,pIC50,SK-PN-DW,> 8.40
same,pIC50,S-117,< 5.99
same,pIC50,NALM-6,> 8.40
same,pIC50,TE-10,7.79
same,pIC50,CAL-148,7.76
same,pIC50,ARH-77,> 8.40
same,pIC50,HuP-T4,7.56
same,pIC50,NCI-H748,6.45
same,pIC50,AN3-CA,6.69
COC1=CC(c2cc3ccccc3[nH]2)=N/C1=C\c1[nH]c(C)cc1C [OBATOCLAX MESYLATE],pIC50,SN12C,6.05
same,pIC50,NCI-H524,5.02
same,pIC50,DMS-114,5.90
same,pIC50,23132-87,6.08
same,pIC50,HT,6.59
same,pIC50,CAL-85-1,7.74
same,pIC50,IA-LM,7.22
same,pIC50,BXPC-3,7.13
same,pIC50,SW780,5.96
same,pIC50,NCI-H1882,5.35
same,pIC50,NCI-H720,< 4.80
same,pIC50,D283 Med,5.95
same,pIC50,NCI-H2122,7.03
same,pIC50,MDA-MB-361,6.00
same,pIC50,ABC-1,6.30
same,pIC50,HC-1,5.71
same,pIC50,NCI-H1693,5.70
same,pIC50,TE-11,6.52
same,pIC50,A498,< 4.80
same,pIC50,SCC-15,7.31
same,pIC50,NCI-H747,6.84
same,pIC50,SR,> 7.20
same,pIC50,SUP-T1,7.53
same,pIC50,5637,7.08
same,pIC50,647-V,6.98
same,pIC50,GAMG,7.24
same,pIC50,LAN-6,5.72
same,pIC50,TE-15,6.69
same,pIC50,ES1,7.31
same,pIC50,RPMI-8226,6.50
same,pIC50,NCI-H526,5.58
same,pIC50,YAPC,5.22
same,pIC50,U-698-M,7.03
same,pIC50,NCI-H1755,5.28
same,pIC50,MKN-7,5.72
same,pIC50,MDA-MB-134-VI,5.39
same,pIC50,Daudi,7.15
same,pIC50,SK-PN-DW,7.24
same,pIC50,S-117,7.54
same,pIC50,NALM-6,> 7.20
same,pIC50,TE-10,7.02
same,pIC50,CAL-148,5.98
same,pIC50,ARH-77,6.96
same,pIC50,HuP-T4,7.39
same,pIC50,NCI-H748,4.97
same,pIC50,AN3-CA,6.81
C=C(c1ccc(C(=O)O)cc1)c1cc2c(cc1C)C(C)(C)CCC2(C)C [BEXAROTENE],pIC50,SN12C,< 5.10
same,pIC50,NCI-H524,< 5.10
same,pIC50,DMS-114,< 5.10
same,pIC50,23132-87,< 5.10
same,pIC50,HT,< 5.10
same,pIC50,CAL-85-1,< 5.10
same,pIC50,IA-LM,5.13
same,pIC50,BXPC-3,< 5.10
same,pIC50,SW780,< 5.10
same,pIC50,NCI-H1882,< 5.10
same,pIC50,NCI-H720,< 5.10
same,pIC50,D283 Med,< 5.10
same,pIC50,NCI-H2122,5.31
same,pIC50,MDA-MB-361,< 5.10
same,pIC50,ABC-1,< 5.10
same,pIC50,HC-1,< 5.10
same,pIC50,NCI-H1693,< 5.10
same,pIC50,TE-11,< 5.10
same,pIC50,A498,< 5.10
same,pIC50,SCC-15,< 5.10
same,pIC50,NCI-H747,< 5.10
same,pIC50,SR,< 5.10
same,pIC50,SUP-T1,< 5.10
same,pIC50,5637,< 5.10
same,pIC50,647-V,< 5.10
same,pIC50,GAMG,< 5.10
same,pIC50,LAN-6,< 5.10
same,pIC50,TE-15,< 5.10
same,pIC50,ES1,< 5.10
same,pIC50,RPMI-8226,< 5.10
same,pIC50,NCI-H526,< 5.10
same,pIC50,YAPC,< 5.10
same,pIC50,U-698-M,< 5.10
same,pIC50,NCI-H1755,< 5.10
same,pIC50,MKN-7,< 5.10
same,pIC50,MDA-MB-134-VI,< 5.10
same,pIC50,Daudi,< 5.10
same,pIC50,SK-PN-DW,< 5.10
same,pIC50,S-117,< 5.10
same,pIC50,NALM-6,< 5.10
same,pIC50,TE-10,< 5.10
same,pIC50,CAL-148,< 5.10
same,pIC50,ARH-77,< 5.10
same,pIC50,HuP-T4,< 5.10
same,pIC50,NCI-H748,< 5.10
same,pIC50,AN3-CA,< 5.10
